The source of these data is ChEMBL document CHEMBL4823263, “Discovery of 2-(3-(3-Carbamoylpiperidin-1-yl)phenoxy)acetic Acid Derivatives as Novel Small-Molecule Inhibitors of the β-Catenin/B-Cell Lymphoma 9 Protein-Protein Interaction” (J Med Chem, 2021).

The subject of assay [1] is SW480. The assay can be described thus: Inhibition of Wnt/beta-catenin transactivation signalling in human SW480 cells harboring mutant tcf4 binding sites assessed as relative activity at 12.5 uM incubated for 24 hrs by FOPFlash luciferase assay relative to control. In kind it is cell-based. On the set-up: scale not given: the % may be the effect or the level left.
Another assay relates to MDA-MB-468. In words: Antiproliferative activity against human MDA-MB-468 cells incubated for 72 hrs by MTS assay. In kind it is functional, cell-based. The settings on record: MDA-MB-468, 72 h. (In general: Formazan colour is commonly taken as a measure of viable cells.)
The test system of a further assay is MDA-MB-231. The assay can be described thus: Antiproliferative activity against human MDA-MB-231 cells incubated for 72 hrs by MTS assay. The assay is classed as functional, cell-based. Conditions: MDA-MB-231, 72 h.
Assay [2] concerns SW480. In words: Inhibition of Wnt/beta-catenin transactivation signalling in human SW480 cells harboring mutant tcf4 binding sites assessed as relative activity at 6.25 uM incubated for 24 hrs by FOPFlash luciferase assay relative to control. The assay is classed as cell-based. The arrangement: scale not given: the % may be the effect or the level left.
The subject of assay [3] is SW480. The assay can be described thus: Inhibition of Wnt/beta-catenin transactivation signalling in human SW480 cells harboring mutant tcf4 binding sites assessed as relative activity at 3.125 uM incubated for 24 hrs by FOPFlash luciferase assay relative to control. In kind it is cell-based. On the set-up: scale not given: the % may be the effect or the level left.
The target in assay [4] is T1, beta-catenin-B-cell lymphoma 9 protein complex (Homo sapiens, UniProt P35222).
T1 sequence (P35222 whole entry): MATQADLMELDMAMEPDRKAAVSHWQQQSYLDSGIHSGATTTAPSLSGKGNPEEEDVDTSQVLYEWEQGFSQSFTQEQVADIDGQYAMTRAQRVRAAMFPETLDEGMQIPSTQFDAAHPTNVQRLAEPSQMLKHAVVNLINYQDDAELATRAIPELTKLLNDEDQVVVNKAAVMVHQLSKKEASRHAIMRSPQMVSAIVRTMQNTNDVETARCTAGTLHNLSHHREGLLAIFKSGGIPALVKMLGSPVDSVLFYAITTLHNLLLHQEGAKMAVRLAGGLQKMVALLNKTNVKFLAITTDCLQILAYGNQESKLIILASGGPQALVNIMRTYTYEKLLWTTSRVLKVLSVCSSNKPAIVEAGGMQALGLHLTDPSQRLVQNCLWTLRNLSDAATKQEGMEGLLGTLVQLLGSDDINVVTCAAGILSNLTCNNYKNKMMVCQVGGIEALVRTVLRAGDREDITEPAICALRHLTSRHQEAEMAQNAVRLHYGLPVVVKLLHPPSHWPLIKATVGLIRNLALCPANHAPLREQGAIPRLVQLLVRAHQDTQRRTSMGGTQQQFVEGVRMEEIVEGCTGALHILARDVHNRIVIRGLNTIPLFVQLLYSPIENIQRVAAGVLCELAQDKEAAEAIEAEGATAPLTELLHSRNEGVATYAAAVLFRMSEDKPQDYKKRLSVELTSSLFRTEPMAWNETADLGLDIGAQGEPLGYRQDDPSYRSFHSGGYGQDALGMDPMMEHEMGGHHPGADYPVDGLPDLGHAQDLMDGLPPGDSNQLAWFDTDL
T1 sequence (O00512 whole entry): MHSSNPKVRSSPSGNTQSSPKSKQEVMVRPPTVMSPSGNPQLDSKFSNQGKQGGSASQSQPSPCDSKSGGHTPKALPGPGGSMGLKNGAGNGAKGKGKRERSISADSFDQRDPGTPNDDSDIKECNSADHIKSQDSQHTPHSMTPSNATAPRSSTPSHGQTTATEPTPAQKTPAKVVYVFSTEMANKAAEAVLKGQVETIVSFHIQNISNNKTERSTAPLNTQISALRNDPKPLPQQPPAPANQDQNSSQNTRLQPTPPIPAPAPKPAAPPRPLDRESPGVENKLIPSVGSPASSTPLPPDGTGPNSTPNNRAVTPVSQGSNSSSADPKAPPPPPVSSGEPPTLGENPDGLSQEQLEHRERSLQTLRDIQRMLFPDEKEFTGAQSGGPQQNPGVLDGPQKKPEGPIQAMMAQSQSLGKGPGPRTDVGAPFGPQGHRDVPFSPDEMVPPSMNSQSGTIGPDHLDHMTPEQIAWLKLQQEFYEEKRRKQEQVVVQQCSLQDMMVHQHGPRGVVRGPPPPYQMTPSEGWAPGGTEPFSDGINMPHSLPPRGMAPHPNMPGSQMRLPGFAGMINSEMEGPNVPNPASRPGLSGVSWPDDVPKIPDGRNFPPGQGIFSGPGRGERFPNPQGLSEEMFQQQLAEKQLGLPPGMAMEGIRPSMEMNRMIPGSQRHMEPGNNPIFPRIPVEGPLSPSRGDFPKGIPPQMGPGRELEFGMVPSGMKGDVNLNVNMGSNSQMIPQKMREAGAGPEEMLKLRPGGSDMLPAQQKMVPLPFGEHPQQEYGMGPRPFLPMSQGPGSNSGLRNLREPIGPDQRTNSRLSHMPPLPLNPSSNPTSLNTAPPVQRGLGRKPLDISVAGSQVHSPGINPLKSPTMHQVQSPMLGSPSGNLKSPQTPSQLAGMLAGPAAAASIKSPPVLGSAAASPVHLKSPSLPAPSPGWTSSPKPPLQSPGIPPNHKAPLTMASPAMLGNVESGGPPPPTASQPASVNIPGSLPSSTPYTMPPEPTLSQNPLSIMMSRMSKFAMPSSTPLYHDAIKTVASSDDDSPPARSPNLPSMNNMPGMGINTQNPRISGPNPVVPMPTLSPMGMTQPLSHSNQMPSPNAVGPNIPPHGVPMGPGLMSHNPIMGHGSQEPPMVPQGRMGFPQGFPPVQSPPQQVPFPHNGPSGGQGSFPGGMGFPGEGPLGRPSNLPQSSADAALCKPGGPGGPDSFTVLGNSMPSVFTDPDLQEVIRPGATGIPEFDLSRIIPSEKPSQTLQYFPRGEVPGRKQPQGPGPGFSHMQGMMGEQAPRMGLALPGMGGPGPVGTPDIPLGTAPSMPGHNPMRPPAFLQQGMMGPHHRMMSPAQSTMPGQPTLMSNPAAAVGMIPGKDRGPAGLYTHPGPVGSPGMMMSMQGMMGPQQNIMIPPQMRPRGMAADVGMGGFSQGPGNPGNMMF
In words: Inhibition of full length C-terminal 6-His-tagged beta-catenin (1 to 781 residues) (unknown origin) expressed in Escherichia coli BL21 (DE3)-N-terminal biotinylated human BCL9 (350 to 375 residues) protein-protein interaction incubated for 1 hr by Alphascreen assay. A general note: Alpha assays give light when donor and acceptor beads are brought close together.

For a further assay, the system named is MCF-10A. In words: Antiproliferative activity against human MCF10A cells incubated for 72 hrs by MTS assay. The assay is classed as functional, cell-based.
Assay [5] has as its system SW480. The assay can be described thus: (§1) Inhibition of Wnt/beta-catenin transactivation signalling in human SW480 cells harboring wild type tcf4 binding sites incubated for 24 hrs by TOPFlash luciferase assay. In kind it is cell-based.
The nature of assay [6]: as §1. The assay is classed as cell-based.
Assay [7] relates to SW480. In words: Antiproliferative activity against human SW480 cells incubated for 72 hrs by MTS assay. The settings on record: SW480, 72 h. The assay is classed as functional, cell-based.
The next assay has as its system HCT-116. In words: Antiproliferative activity against human HCT116 cells incubated for 72 hrs by MTS assay. In kind it is functional, cell-based. The settings on record: HCT-116, 72 h.

As a reminder, the IC50 is the point on the concentration scale where inhibition reaches its midpoint. One may read the Ki as a dissociation constant, usually derived from enzyme kinetics or from competition with a known ligand. For the compound `COc1cccc(S(=O)(=O)NC(=O)C(C)(C)Oc2cccc(N3CCC[C@H](C(=O)N(Cc4ccc(-c5cccs5)cc4)C4CC4)C3)c2)c1`, the Activity with SW480 [1] was 54%; with SW480 [2], 81%; in the assay with SW480 [3], 98%; in the assay on SW480 [5], “Dose-Dependent Effect”. The IC50 came to 15.4 µM with MDA-MB-468; 19.8 µM in the assay with MDA-MB-231; 2.9 µM in assay [4]; 30.4 µM with MCF-10A; 7.8 µM in [6]; 28.2 µM in the assay with SW480 [7]. The compound further gave an IC50 in the assay with HCT-116 of 29.9 µM. For the same compound, the inhibition constant Ki in [4] was found to be 2.3 µM.
